{"source": "patent US20250235486A1", "about": "“Method of Producing Insulin-Producing Cells” (Monash University, priority 2022, published 2025)", "tested_on": "human pancreatic exocrine cells", "test": "qRT-PCR gene expression in ex vivo pancreatic exocrine cells from non-diabetic and type 1 diabetic donors", "type": "cell-based", "description": "Islets were purified by intraductal perfusion and digestion of the pancreases with collagenase AF-1 (SERVA/Nordmark, Germany) (Ricordi C et al. Automated method for isolation of human pancreatic islets. Diabetes 37, 413-420 (1988)), followed by purification using Ficoll density gradients (Barbaro B, et al. Improved human pancreatic islet purification with the refined UIC—UB density gradient. Transplantation 84, 1200-1203 (2007)). Purified islets, from low density gradient fractions, and acinar/ductal tissue, from high density fractions, were cultured in Miami Media 1A (Mediatech/Corning 98-021, USA) supplemented with 2.5% human serum albumin (Australian Red Cross, Melbourne, VIC, Australia), in a 37° C., 5% CO2 incubator.\nTotal RNA from human ex vivo pancreatic cells was isolated using TRIzol (Invitrogen) and RNeasy Kit (QIAGEN) including a DNase treatment. First-strand cDNA synthesis was performed using a high-capacity cDNA Reverse Transcription Kit (Applied Biosystems) according to the manufacturer's instructions. cDNA primers were designed using oligoperfect designer (Thermo Fisher Scientific), as shown in Table 2 and Table 3. Briefly, quantitative RT-PCR analyses were undertaken using the PrecisionFast 2× qPCR Master Mix (Primerdesign) and primers using Applied Biosystems 7500 Fast Real-Time PCR System. Each qPCR reaction contained: 6.5 μl qPCR Master Mix, 0.5 μl of forward and reverse primers, 3.5 μl H2O and 2 μl of previously synthesised cDNA, diluted 1/20. Expression levels of specific genes were tested and normalised to 18s ribosomal RNA housekeeping gene.\nAll cell incubations were performed in Miami Media 1A (Mediatech/Corning 98-021, USA) supplemented with 2.5% human serum albumin (Australian Red Cross, Melbourne, VIC, Australia), in a cell culture incubator at 37° C. in an atmosphere of 5% CO2 for 48 hr using non-treated 6 well culture plates (Corning).", "key": {"[1]": {"details": "10 mM GSK126 (so in the source), 48 hr"}, "[2]": {"details": "10 mM GSK126 (so in the source), 48 hr, non-diabetic and T1D donors"}}}
{"smiles": "CC[C@H](C)n1cc(C)c2c(C(=O)NCc3c(C)cc(C)[nH]c3=O)cc(-c3ccc(N4CCNCC4)nc3)cc21", "note": "[GSK126, N-[(1,2-Dihydro-4,6-dimethyl-2-oxo-3-pyridinyl)methyl]-3-methyl-1-[(1S)-1-methylpropyl]-6-[6-(1-piperazinyl)-3-pyridinyl]-1H-indole-4-carboxamide]", "values": [{"measurement": "Amy2A (acinar marker) expression", "setting": "[1]", "result": "did not significantly alter"}, {"measurement": "Ck19 (ductal marker) expression", "setting": "[1]", "result": "did not significantly alter"}, {"measurement": "Ki67 (proliferative marker) expression", "setting": "[1]", "result": "increased"}, {"measurement": "Txnip (glucose-sensor) expression", "setting": "[1]", "result": "did not significantly alter"}, {"measurement": "Ins gene expression", "setting": "[2]", "result": "significant expression"}, {"measurement": "Ngn3 mRNA expression", "setting": "[2]", "result": "restored"}, {"measurement": "Pdx1 mRNA expression", "setting": "[2]", "result": "restored"}, {"measurement": "Sox9 mRNA expression", "setting": "[2]", "result": "restored"}, {"measurement": "MafA gene expression", "setting": "ex vivo exocrine cells, GSK126", "result": "restored"}, {"measurement": "Nkx6.1 gene expression", "setting": "ex vivo exocrine cells, GSK126", "result": "restored"}, {"measurement": "Sox11 gene expression", "setting": "ex vivo exocrine cells, GSK126", "result": "restored"}]}
